# Values joined by “and” are separate entries in the source; they are usually repeats but may differ in a detail not shown here. Identical values can stand only once. Marks after values point to notes of the source that are not given here.
# How the values were obtained:
# Format in all cases: in vivo, Sprague Dawley rats
# [1] = tested on: ovariectomized (OVX) rats; assay: Four day dosing regimen, post-menopausal rat model: wet uterine weight; conditions: for Uterine Weight (% inc. OVX): OVX rats, oral, daily for 4 days
# Protocol: (§1) Animals were dosed daily for 4 days. […] A blood sample was collected by cardiac puncture.
# [2] = tested on: uterine eosinophil peroxidase activity; assay: Uterine eosinophil peroxidase (EPO) assay, four day dosing; conditions: for Uterine EPO (Vmax): OVX rats, oral, daily for 4 days
# Protocol: as §1
# [3] = tested on: ovariectomized (OVX) rats; assay: Serum cholesterol analysis, four day dosing
# Protocol: as §1
# Blood samples were allowed to clot at room temperature for 2 hours, and serum was obtained following centrifugation for 10 minutes at 3000 rpm. Serum cholesterol was determined using a Boehringer Mannheim Diagnostics high performance cholesterol assay. Briefly the cholesterol was oxidized to cholest-4-en-3-one and hydrogen peroxide. The hydrogen peroxide was then reacted with phenol and 4-aminophenazone in the presence of peroxidase to produce a p-quinone imine dye, which was read spectrophotemetrically at 500 nm. Cholesterol concentration was then calculated against a standard curve. The entire assay was automated using a Biomek Automated Workstation.
# [4] = tested on: ovariectomized (OVX) rats; assay: Thirty-five day dosing regimen: bone density assay (tibia, single photon absorptiometry); conditions: oral in 20% hydroxypropyl β-cyclodextrin, daily for 35 days
# Protocol: Following the General Preparation procedure described above, the rats were treated daily for 35 days (6 rats per treatment group) and sacrificed by decapitation on the 36th day. The 35 day time period was sufficient to allow maximal effect on bone density, measured as described herein. At the time of sacrifice, the uteri were removed, dissected free of extraneous tissue, and the fluid contents were expelled before determination of wet weight in order to confirm estrogen deficiency associated with complete ovariectomy. […] The uteri were then placed in 10% neutral buffered formalin to allow for subsequent histological analysis. The right tibias were excised and scanned at the distal metaphysis 1 mm from the patellar groove with single photon absorptiometry. Results of the densitometer measurements represent a calculation of bone density as a function of the bone mineral content and bone width. In accordance with the procedures outlined above, compounds of the present invention and EE2 in 20% hydroxypropyl β-cyclodextrin were orally administered to test animals.
# [5] = Rattus norvegicus, po, 96 h, OVX rats, oral, daily for 4 days, read-out: Serum Cholesterol (% dec. OVX)
SMILES,Uterine Weight (% inc. OVX) ([1]; dose 0.1 mg/kg),Uterine Weight (% inc. OVX) ([1]; dose 1 mg/kg),Uterine Weight (% inc. OVX) ([1]; dose 10 mg/kg),Uterine EPO (Vmax) ([2]; dose 0.1 mg/kg),Uterine EPO (Vmax) ([2]; dose 1 mg/kg),Uterine EPO (Vmax) ([2]; dose 10 mg/kg),Uterine Weight (% inc. OVX) ([1]; dose 0.01 mg/kg),Uterine EPO (Vmax) ([2]; dose 0.01 mg/kg),effect on uterine weight compared to ovariectomized animals (in words) ([1]; EE2 orally at 0.1 mg/Kg/day),"eosinophil infiltration into the uterus, by eosinophil peroxidase activity (in words) ([2]; ovariectomized rats)","inhibition in vivo at 0.1 mg/kg [3, 5] [%]","inhibition in vivo at 1 mg/kg [3, 5] [%]","inhibition in vivo at 10 mg/kg [3, 5] [%]","inhibition in vivo at 0.01 mg/kg ([3]; Rattus norvegicus, po, 96 h, OVX rats, oral, daily for 4 days, dose 0.01 mg/kg, read-out: Serum Cholesterol (% dec. OVX)) [%]",effect on serum cholesterol compared to ovariectomized control animals (in words) ([3]; EE2 orally at 0.1 mg/Kg/day),tibia density / bone loss after ovariectomy (in words) [4]
CCCCN(C)C(=O)COc1ccc(C(=O)c2c(-c3ccc(O)cc3)sc3cc(O)ccc23)cc1 [Compound 10],1.5 % inc. OVX,−6.7 % inc. OVX,38.0* % inc. OVX,4.3 Vmax,3.1 Vmax,17.0 Vmax,,,,,,,,,,
CC(C#N)Oc1ccc(C(=O)c2c(-c3ccc(O)cc3)sc3cc(O)ccc23)cc1 (stereo not shown) [Compound 16],0.7 % inc. OVX,27.4 % inc. OVX,99.2* % inc. OVX,2.3 Vmax,3.9 Vmax,23.4 Vmax,,,,,3.4,28.8,71.2,,,
O=C(c1ccc(OCC(=O)N2CCCCC2)cc1)c1c(-c2ccc(O)cc2)sc2cc(O)ccc12 [Compound 9],−10.0 % inc. OVX,6.5 % inc. OVX,51.7* % inc. OVX,2.8 Vmax,3.6 Vmax,32 Vmax,,,,,,,,,,
CN(C)C(=O)COc1ccc(C(=O)c2c(-c3ccc(O)cc3)sc3cc(O)ccc23)cc1 [Compound 12],−7.7 % inc. OVX,15.4 % inc. OVX,60.7* % inc. OVX,3.7 Vmax,6.7 Vmax,122.3* Vmax,,,,,,,,,,
O=C(c1ccc(OCC(=O)N2CCCC2)cc1)c1c(-c2ccc(O)cc2)sc2cc(O)ccc12 [Compound 8],,,,3.6 Vmax and 4.4 Vmax,6.1 Vmax and 3.7 Vmax,,−22.9,3.5,,,17.4,,70.3,27.2,,
O=C(c1ccc(OCCN2C(=O)CCC2=O)cc1)c1c(-c2ccc(O)cc2)sc2cc(O)ccc12 [Compound 13],22.2 % inc. OVX,7.2 % inc. OVX,−4.0 % inc. OVX,1.9 Vmax,1.7 Vmax,2.5 Vmax,,,,,,,,,,
O=C(c1ccc(OCCN2CCCCC2=O)cc1)c1c(-c2ccc(O)cc2)sc2cc(O)ccc12 [Compound 3],13.3 % inc. OVX,17.8 % inc. OVX,57.6* % inc. OVX,8.0 Vmax,7.8 Vmax,8.9 Vmax,,,,,,,,,,
N#CCOc1ccc(C(=O)c2c(-c3ccc(O)cc3)sc3cc(O)ccc23)cc1 [Compound 14],18.8 % inc. OVX,14.6 % inc. OVX,124.6* % inc. OVX,3.3 Vmax,2.4 Vmax,145.8* Vmax,,,,,,,91.1,,,
O=C(c1ccc(OCCN2CCCC2=O)cc1)c1c(-c2ccc(O)cc2)sc2cc(O)ccc12 [Compound 6],−9 % inc. OVX,15.4 % inc. OVX,40.3* % inc. OVX,3.6 Vmax,1.4 Vmax,3.7 Vmax,,,,,,,,,,

# Second part, led by results:
Uterine Weight (% inc. OVX) ([1]; dose 0.1 mg/kg),Uterine Weight (% inc. OVX) ([1]; dose 1 mg/kg),Uterine Weight (% inc. OVX) ([1]; dose 10 mg/kg),Uterine EPO (Vmax) ([2]; dose 0.1 mg/kg),Uterine EPO (Vmax) ([2]; dose 1 mg/kg),Uterine EPO (Vmax) ([2]; dose 10 mg/kg),Uterine Weight (% inc. OVX) ([1]; dose 0.01 mg/kg),Uterine EPO (Vmax) ([2]; dose 0.01 mg/kg),effect on uterine weight compared to ovariectomized animals (in words) ([1]; EE2 orally at 0.1 mg/Kg/day),"eosinophil infiltration into the uterus, by eosinophil peroxidase activity (in words) ([2]; ovariectomized rats)",SMILES,"inhibition in vivo at 0.1 mg/kg [3, 5] [%]","inhibition in vivo at 1 mg/kg [3, 5] [%]","inhibition in vivo at 10 mg/kg [3, 5] [%]","inhibition in vivo at 0.01 mg/kg ([3]; Rattus norvegicus, po, 96 h, OVX rats, oral, daily for 4 days, dose 0.01 mg/kg, read-out: Serum Cholesterol (% dec. OVX)) [%]",effect on serum cholesterol compared to ovariectomized control animals (in words) ([3]; EE2 orally at 0.1 mg/Kg/day),tibia density / bone loss after ovariectomy (in words) [4]
7 % inc. OVX,−25.5* % inc. OVX,47.0* % inc. OVX,5.4 Vmax,3.7 Vmax,29.3* Vmax,,,,,CC(=O)N(CCOc1ccc(C(=O)c2c(-c3ccc(O)cc3)sc3cc(O)ccc23)cc1)C1CCCCC1 [Compound 19],,20.1,52.2,,,
−4.3 % inc. OVX,0.8 % inc. OVX,22.3 % inc. OVX,1.6 Vmax,3.8 Vmax,6.7 Vmax,,,,,CC(C)(C)C(=O)N1CCC(Oc2ccc(C(=O)c3c(-c4ccc(O)cc4)sc4cc(O)ccc34)cc2)CC1 [Compound 23],,,55.8,,,
1.9 % inc. OVX,19.6 % inc. OVX,46.9* % inc. OVX,3.5 Vmax,20.0 Vmax,69.5* Vmax,,,,,CC(C)(C)C(=O)N1CCCCC1COc1ccc(C(=O)c2c(-c3ccc(O)cc3)sc3cc(O)ccc23)cc1 (stereo not shown) [Compound 22],22.1,36.2,71.5,,,
−17.5 % inc. OVX,−28.8* % inc. OVX,25.8* % inc. OVX,1.3 Vmax,0.7 Vmax,13.6 Vmax,,,,,CC(=O)NCCOc1ccc(C(=O)c2c(-c3ccc(O)cc3)sc3cc(O)ccc23)cc1 [Compound 26],,19,32.8,,,
16.1 % inc. OVX,25.7 % inc. OVX,12.6 % inc. OVX,3.2 Vmax,3.6 Vmax,3.6 Vmax,,,,,O=C(NCCOc1ccc(C(=O)c2c(-c3ccc(O)cc3)sc3cc(O)ccc23)cc1)c1ccccc1 [Compound 18],-10.8,-12.2,12.8,,,
−29.9 % inc. OVX,−27.4 % inc. OVX,−32.7 % inc. OVX,3.0 Vmax,2.5 Vmax,2.9 Vmax,,,,,O=C(NCCOc1ccc(C(=O)c2c(-c3ccc(O)cc3)sc3cc(O)ccc23)cc1)NC1CCCCC1 [Compound 20],,,,,,
235.2* % inc. OVX,,,120.0* Vmax,,,,,substantially greater,"substantial, expected increase","C#C[C@]1(O)CC[C@H]2[C@@H]3CCc4cc(O)ccc4[C@H]3CC[C@@]21C [ethynyl estradiol, 17α-Ethynyl estradiol, reference compound]",,,,,decrease in serum cholesterol,prevented this loss
−5.5 % inc. OVX,−11.5 % inc. OVX,8.6 % inc. OVX,3.1 Vmax,2.6 Vmax,2.4 Vmax,,,,,O=C(c1ccc(OCCNC(=O)C2CCCCC2)cc1)c1c(-c2ccc(O)cc2)sc2cc(O)ccc12 [Compound 21],9.3,0.5,24,,,
